System: Human melanoma HM3KO cells
Experiment: Effect on inhibition of melanin production
Type: cell-based
Details: 10 ppm of each test material, absorbance at 500 nm vs DMSO control
Method: Human melanoma HM3KO cells (Y. Funasaka, Department of dermatology, Kobe university school of medicine, 5-1 Kusunoki-cho 7-chrome, Chuo-ku, Kobe 650, Japan) were cultured in 10% FBS-containing MEM (Minimum Essential Medium) under the conditions of 37° C. and 5% CO2. The cultured cells were plated on T75 flasks at a density of 3×10^5 cells per flask and allowed to stand overnight until the cells adhered to the flask wall. After the cells were confirmed to adhere to the flask wall, the medium was replaced with a fresh medium containing 10 ppm of each of the test materials shown in Table 1 below. In a control group, a DMSO-containing medium was used. In this manner, the medium was replaced with a fresh medium containing each test material once at intervals of 2-3 days, while the cells were cultured until the flask was filled with the cells. When the cells completely grew, the cells were collected, and the color thereof was compared between the control group and each of the groups treated with the test material. In addition, after the culture medium has been removed and the cells were washed with PBS, the cells were dissolved in 1N sodium hydroxide, and the absorbance at 500 nm was measured. Based on the measurements, the inhibition (%) of melanin production was calculated using the following equation 1, and the results of the calculation are shown in Table 1 below. Inhibition (%) of melanin production=[…] [Equation 1]

| SMILES | inhibition at 10 ppm [%] |
| --- | --- |
| NC[C@H]1CC[C@H](C(=O)O)CC1 [Tranexamic acid] | 32.2 |
| NC(=O)c1cccnc1 [Nicotinic acid amide] | 29.5 |
| O=c1cc(CO)occ1O [Kojic acid] | 28.3 |

Source: US20130018020A1, “INHIBITOR FOR MELANIN, AND COSMETIC COMPOSITION CONTAINING SAME” (AMOREPACIFIC CORPORATION, priority 2010, published 2013)
